Results: paper PMC9889419 (Pharmacological Reports, 2022)
Where two headings read alike, the source gives them in different places.

Tests used:
mice [1] = details: ip; cited from earlier work
Frings mice = details: cited from earlier work
mice [2] = details: at 40 and 80 mg/kg, ip; cited from earlier work
mice [3] = assay: Formalin test (ETSP, area under the curve); format: in vivo; details: 20.0 mg/kg, ip
mice [4] = assay: iv pentylenetetrazole (PTZ) seizure threshold test; details: compound ip
Experimental: They were also evaluated in the iv pentylenetetrazole (PTZ) test.
Data are expressed as the mean PTZ dose ± SEM for n = 10 that induced clonus or twitch in mice exposed to a particular dose of the test compound

mice [5] = assay: Subcutaneous pentylenetetrazole seizure test (ScPTZ, SCMET); format: in vivo; details: mice, ip, […]
Experimental: (§3) The assays were carried out within the Epilepsy Therapy Screening Program (ETSP, previously known as the Anticonvulsant Screening Program, ASP), Epilepsy Branch, National Institute of Neurological and Communicative Disorders and Stroke, National Institutes of Health in Rockville, MD, USA [23].

mice [6] = assay: 6 Hz test; format: in vivo; details: 32 mA, mice, ip
Experimental: The 6 Hz model test was carried out according to the protocol originally described by Brown et al. [54] and more recently by Barton et al. [55] and Kamiński et al. [47] and is a model of pharmacoresistant epilepsy [56].

[7] = test system: organotypic hippocampal slice cultures; assay: Neuroprotection primary screen, excitotoxin NMDA; format: cell-based; details: NMDA 10 µM; 10 and 100 µM compound
Description: Gompound 1 : ADD Number: ItSot+ Batct: lE- Date Started:
Compound 2 : ADD Number: Froso Batct: le Date Completed i l|26-M ar -20 1 O […]
Excitotoxin: lNmoa lnsult Duration: la Uouo Solvent:
Primary Screen Results: ffi […]
Al lruuoa rolrr,| A2lr'rrr,tOa r Olrrr,t * --.- A3 lr'rnroa r oprvr + lsaoot+ t oplrl+aesogo iopM
BZ lr.rrr,ron ropr,t , -_-_-- 83 lluoa topt',r * jffi 1 4 t oopM.€sroso 1 oolrM la+eota tooptu*aasoeo roffi […]
The 'Primary screen Experiment" is a qualitative assessment of the ability of a compound to prevent excrtotoxic cell death. organotypic hippocampal slice cultures are treated *ltn r.i-."iivr-o-"spartate (NMDA) or kainic acad (KA) to induce neuronal cell death' Propidium iodide (Pl), a membrane-imper.eant cornpouna, is included in all wells of the culture plate.
Dying cells have compromised *]lT^"Toj*::, ttr. er rnJy oin "" into the cell, intercatate with DNA and fluoresce. Thus, the intensity of the Pl fluorescence is proportional to the amount of cell death in lhe individual itices. ttippocampat slice cullures are treated with the excitotoxin alone, or *i er. inoi"ui"o above, with the excitotoxin and either one -qf]bar-a Investigalional compounds at the concentrations indicated. lf neuroprotectron occurs as a consequence of the added […]
(§1) been treated with the excitotoxin alone.
(§2) (1 picture or pasted object on this page, not shown here)

[8] = test system: organotypic hippocampal slice cultures; assay: Neuroprotection primary screen, excitotoxin kainic acid; format: cell-based; details: kainic acid 20 µM; 10 and 100 µM compound
Experimental: Compound 2 : ADD t{umber, b890s0 Batch: lB- Date Compteted. Ect\,t""201 0 […]
Excilotoxin: llGinic ncia Insult Duration: l+ Hours Solvent: […]
Ai lxn zopr.,r aZ lxa zopr,r Ae lre zoprta
Bz lr<n zopn er ]ra zopr',t l:+aot a r ooprt/|*aa9o8o l oopM lgaeota t oot,tr,t*gB9o8o t oopM […]
The "Primary screen Experiment" is a qualitative assessment of the ability of a compound to prevent excitotoxic cell dearh. organotypic hippocampal slice clltures are treated with N-methyl-D-aipartate lNuoa; o; kainic acid (KA) to induce neuronal cell death. Propidium iodide (Pl), a membrane-impermeant compound, is included in all welts of the culture plate.
Dying cells have compromised cell membranes, thus Pl may diffuse into the cell, intercalate with DNA and ftuoresce. Thus, the intensity of the Pl fluorescence is proportional to the amount of cell death in the individual slices. Hippocampal slice cultures are treated with the excitotoxin alone, or where indicated above, with the excitotoxin and either one eltu/o investigational compounds at the concentrations indicated. lf neuroprotection occurs as a consequence of the added […]
as §1, §2

rats [9] = format: in vivo; details: ip
rats [10] = format: in vivo; details: ip; remark: listed apart in the source
mice [11] = details: mice, ip, […]
Experimental: as §3
(§4) The obtained compounds were screened for antiseizure activity and neurotoxicity in vivo within the Epilepsy Therapy Screening Program (ETSP, previously known as the Anticonvulsant Screening Program, ASP), Epilepsy Branch, National Institute of Neurological and Communicative Disorders and Stroke, National Institutes of Health in Rockville, MD, USA [23].

mice [12] = assay: Rotarod test (neurotoxicity); format: in vivo; details: mice, ip, […];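 further: in vivo neurotoxicity screen run within the NIH Epilepsy Therapy Screening Program (ETSP, formerly Anticonvulsant Screening Program)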
Experimental: as §3, §4

rats [13] = assay: Maximal electroshock seizure (MES) test; format: in vivo
rats [14] = assay: Rotarod / TOX (neurotoxicity); details: rats, ip
Experimental: as §3, §4

rats [15] = details: ip
Experimental: as §3

rats [16] = assay: Acute toxicity (ETSP screening); format: in vivo; details: ip, 0.5 h

NC(=O)N1c2ccccc2C=Cc2ccccc21 [Carbamazepine]
MES ED50 (mice [1]): 7.81 (6.32–8.45) mg/kg
Frings mice sound-induced seizures ED50 (Frings mice): 11.2 (7.73–16.2) mg/kg
6 Hz: Max. protection (mice [2]): 75%

CC[C@H](CO)NCCOc1c(C)cccc1Cl [Compound 5, R-(-)-2-((2-(2-chloro-6-methylphenoxy)ethyl)amino)butan-1-ol]
Area under the curve (I phase) (mice [3]): 155.1 ± 44.2
Area under the curve (II phase) (mice [3]): 496.7 ± 164.7
Area under the curve, % of control (I phase) (mice [3]): 78.7; t14 = 1.3050%
Area under the curve, % of control (II phase) (mice [3]): 105.6; t14 = 0.3579%
Area under the curve (II phase) (mice [3]; listed as 354009): 496.7
Area under the curve, % of control (I phase) (mice [3]; listed as 354009): 78.68%
Area under the curve, % of control (II phase) (mice [3]; listed as 354009): 105.6%
influence on seizure threshold (mice [4]): effect was not shown
SCMET ED50 (mice [5]): > 70 mg/kg
6 Hz ED50 (mice [6]; […]): 33.1 (29–37.8) mg/kg
6 Hz TPE (mice [6]): 0.25 h
Test Result (neuroprotection) [7]: No Neuroprotection
Test Result (neuroprotection) [8]: No Neuroprotection
Hippocampal kindling TPE (rats [9]): 0.75 h
Hippocampal kindling seizure score by Racine (0–5), Rat1 (rats [9]; at 30 mg/kg): 4
Hippocampal kindling seizure score by Racine (0–5), Rat2 (rats [9]; at 30 mg/kg): 0
Pilocarpine-induced status epilepticus prevention: active at (rats [10]): 50 mg/kg
Prot./Tested (rats [10]; 25 mg/kg, 0 h post first Stage III seizure): 2/8
Pilocarpine test: rats died (rats [10]; at 100 mg/kg, […]): 2/2
MES ED50 (mice [11]): 18.20 (16.60–20.00) mg/kg
Rotarod TD50 (mice [12]): 59.80 (43.80–74.20) mg/kg
MES PI (rats [13]; ip): > 9.12
MES TPE (rats [13]; ip): 0.25 h
MES ED50 (rats [13]; ip, […]): 4.65 (2.94–6.88) mg/kg
MES TPE (rats [13]; po): 0.5 h
Rotarod TPE (rats [14]): 0.25 h
Rotarod TD50 (rats [14]; […]): > 30 mg/kg
LTG-resistant amygdala seizures: rats with toxicity (rats [15]; 30 mg/kg): 3/4
LTG-resistant amygdala seizures: seizure score by Racine (0–5) (rats [15]; 30 mg/kg): 3.5
LTG-resistant amygdala seizures: rats with toxicity (rats [15]; 50 mg/kg): 5/5
LTG-resistant amygdala seizures: seizure score by Racine (0–5) (rats [15]; 50 mg/kg): 2.2
Acute toxicity: minimal motor impairment at (rats [16]): 50 mg/kg
